This passage reports melting point results from a melting point compilation (Tetko et al.).

Some results are limits rather than exact numbers.

`Cc1cc(CSc2ccccc2C(=O)O)on1` registered a melting point of 157 to 161 °C. `O=C(Nc1ccccc1)OCC(F)(F)F` registered a melting point of 62 to 65 °C. For `O=C(O)C1CC=CCC1C(=O)N1CCCC1` (stereo unspecified) the value was 116 to 118 °C; for `O=C(CCl)Nc1ccc(O)cc1`, 145 to 147 °C. For `CCOC(=O)C1CC(=O)NN1c1ncccc1Cl` (stereo unspecified), the melting point lay within 135 to 137 °C. In the case of `CN(c1ccc(C(=O)CCl)cc1)S(C)(=O)=O` it was 75 to 77 °C; in that of `CCC(=O)c1ccc(N(C)C)cc1`, 104 to 106 °C; in that of `CCOC(=O)c1cncnc1O`, 179 to 181 °C. For `CNC1(C(=O)O)CCCCC1` the value was 309 to 311 °C. In the case of `O=C(O)CCCc1ccc(Cl)c(Cl)c1` it was 69 to 71 °C.

In turn, `CC(=O)N(c1cccc(C)c1)c1nc(CCl)cs1` returned a melting point of 117 to 119 °C. In turn, `OC(c1ccccc1)c1cccnc1` (stereo unspecified) had a melting point of 59 to 61 °C. For `Cn1cc(CCC(=O)O)cn1`, the melting point was 137 to 139 °C.

As to `NC(=NO)c1ccc(CN2CCOCC2)cc1`, the melting point lay within 158 to 160 °C. For the compound `O=C(O)COc1ccc(-c2ccccc2)cc1`, the melting point lay within 195 to 197 °C. Turning to `COc1ccc(S(=O)(=O)N2CCC(=NO)CC2)cc1`, the melting point lay in the range of 164 to 166 °C. For `COC(=O)C(=O)CC(=O)c1ccc(-c2ccccc2)cc1` the value was 142 to 144 °C; for `CC(C)(C)OC(=O)NCCc1nc(N)no1`, 116 to 118 °C. `O=C(NCc1ccccc1)c1cc2ccccc2cc1O`: the melting point is 180 to 182 °C. For `O=Cc1sc(Cl)nc1Cl` the value was 38 to 42 °C; for `Cc1nc2scc(C)n2c1C=O`, 153 to 155 °C. For `COc1cc(NC(=O)CCCl)cc(OC)c1OC` the value was 117 to 119 °C.

`Cc1cc(C(=O)CCl)c(C)n1-c1ccc(C(C)(C)C)cc1`: the melting point lay within 102 to 104 °C.

The compound `CCOC(=O)c1c(NC(N)=S)sc(C)c1C` came in with a melting point of 207 to 209 °C. In the case of `Nc1ccc2c(c1)N(CCO)CC2`, the melting point is 59 to 61 °C. `N#CCCN1CCS1(=O)=O` returned a melting point of 52 to 54 °C.

In turn, `O=C(O)CCc1nnc(-c2ccccc2)o1` gave a melting point of 144 to 146 °C.

Compound `CNc1cccc([N+](=O)[O-])c1` came in with a melting point of 65 to 67 °C.

`Nc1ncc(Cc2cccc(C(F)(F)F)c2)s1` came in with a melting point of 73 to 77 °C.

Take `O=C(O)Cc1cc(Cl)c2c(c1)OCCO2`: the melting point was in the range of 176 to 178 °C.

With `CCOC(=O)C(NC(=O)c1ccccc1)C(=O)OCC`, the melting point was in the range of 62 to 64 °C. In the case of `CC(=O)N(c1ccc(C(F)(F)F)cc1)c1nc(C=O)cs1` it was 138 to 140 °C; in that of `CCOC1CCN(C(=O)Nc2cccc(C(C)=O)c2)CC1`, 95 to 97 °C. In the case of `O=C(O)C(Oc1ccc(F)cc1Br)c1ccccc1` (stereo unspecified) it was 133 to 135 °C. Compound `O=C(O)Cn1nc(-c2ccccc2)ccc1=O` yielded a melting point of 237 to 239 °C. In the case of `CNc1ncc2c(n1)-c1ccccc1SC2` it was 123 to 125 °C. The compound `NC1CCN(c2ccc(F)c(Cl)c2)C1=O` (stereo unspecified) gave a melting point of 110 to 112 °C.

Compound `Cc1ccc(Nc2cccc(C(=O)O)c2)nn1` had a melting point of 279 to 281 °C. For `Cc1ccc(C)c(-n2ccnc2S)c1` the value was 192 to 194 °C; for `NC(=O)c1cc(-c2ccccc2)sc1N`, 200 to 210 °C. The compound `SC1=Nc2ccccc2CS1` showed a melting point of 149 to 151 °C. For the compound `CC1=NN(c2cc(C)ccc2C)C(=O)C1`, the melting point lay within 164 to 166 °C. Take `Cc1nc(O)ccc1I`: the melting point lay within 209 to 211 °C. For `CN1CCN(S(=O)(=O)c2cccc(Br)c2)CC1` the value was 103 to 105 °C; for `Sc1ncccc1Cl`, 204 to 206 °C.

Turning to `NNC(=O)c1cc(Br)ccc1O`, the melting point was 222 to 224 °C. For `CC(C)(C)c1ccc(C(O)CN)cc1` (stereo unspecified) the value was 125 to 127 °C; for `Nc1ccc(F)cc1-c1nc(CCOc2ccccc2)no1`, 122 to 124 °C.

`CC(C)(C)OC(=O)N1CCC(O)(C(F)(F)F)C1` (stereo unspecified): the melting point lay in the range of 102 to 104 °C. For `CC(C)(C(O)c1ccc(Br)cc1)[N+](=O)[O-]` (stereo unspecified) the value was 106 to 108 °C. Compound `CS(=O)(=O)Nc1ccccc1C#N` displayed a melting point of 99 to 101 °C. `O=C(O)c1cccc(S(=O)(=O)Nc2ccccc2-c2ccccc2)c1`: the melting point lay within 164 to 166 °C.

In turn, `O=C(O)c1cnn(-c2ccccc2Cl)c1` gave a melting point of 170 to 172 °C. `O=C1N[C@H](C(=O)O)CS1` gave a melting point of 166 to 170 °C. In the case of `O=C(O)c1cc(-c2cc(F)ccc2F)no1` it was 187 to 189 °C; in that of `COc1cc(C#N)ccc1OCCCl`, 95 to 97 °C. Regarding `O=C(O)c1cc2c(s1)-c1ccccc1CC2`, the melting point is 212 to 214 °C. As to `NCc1ccccc1NS(=O)(=O)c1ccccc1`, the melting point is 188 to 190 °C. For `COc1ccccc1NS(=O)(=O)c1cccc(C(=O)O)c1` the value was 156 to 158 °C; for `O=C(O)c1cn(-c2ccccc2)nc1-c1cccs1`, 197 to 199 °C. For `Clc1cc(C2CC2)nc2ncnn12`, the melting point lay in the range of 99 to 101 °C.

As for `OC(CCl)CNCc1ccccc1` (stereo unspecified), the melting point lay in the range of 63 to 65 °C.

Take `CC(C)(C)OC(=O)Nc1cccc(CCl)c1`: the melting point was in the range of 103 to 105 °C.

`Cc1nn(C)c(C)c1O` gave a melting point of 186 to 188 °C. On to `CCc1nn(C)c(Cl)c1C(=O)O`, for which the melting point lay within 139 to 141 °C. In turn, `O=C(O)c1ccn(-c2cccc(Cl)c2)n1` displayed a melting point of 143 to 145 °C. Compound `COc1ccc2nc(Cl)ccc2c1S(=O)(=O)Cl` had a melting point of 136 to 138 °C. In the case of `Cc1cc(Cl)c2cc(OC(F)F)ccc2n1` it was 81 to 83 °C. For `O=C(O)c1ccc(-c2noc(-c3ccc(F)cc3)n2)cc1` the value was 291 to 293 °C. In the case of `COc1ccc(C(NC(=O)CCl)c2ccc(OC)cc2)cc1` it was 118 to 120 °C; in that of `CCNc1ncccc1N`, 108 to 110 °C; in that of `O=C(O)C1CC(=O)N(c2ccccc2)C1` (stereo unspecified), 191 to 193 °C.

As for `Cc1n[nH]c(C)n1`, the melting point lay in the range of 127 to 131 °C. `Cc1csc(=O)n1CCC(=O)O` returned a melting point of 108 to 110 °C. For `CC1Cc2cc(C(=O)O)ccc2N1S(C)(=O)=O` (stereo unspecified) the value was 194 to 196 °C; for `CC(C)(C)OC(=O)N1CCCNC(=O)C1`, 112 to 114 °C; for `COCCn1c(S)nnc1-c1ccccc1`, 133 to 135 °C.

With `CNS(=O)(=O)Cc1ccc(CN)cc1`, the melting point lay within 140 to 142 °C. The compound `Cc1nc(-c2cccc(Br)c2)ccc1C(=O)O` showed a melting point of 181 to 183 °C. In the case of `Cn1c(CO)nnc1-c1ccccc1` it was 184 to 186 °C. In the case of `O=C(CCl)NC(=O)OCc1ccccc1` it was 113 to 115 °C. Consider `NC(=S)c1ccoc1`, for which the melting point lay within 103 to 105 °C.

Turning to `CNCc1c(C)nn(-c2ccccc2C)c1C`, the melting point lay in the range of 41 to 43 °C.

With `CC(C)(C)OC(=O)N1CCCCCC1C(N)=NO` (stereo unspecified), the melting point was 150 to 152 °C. For `CCOC(=O)C1CN(C(=O)OC(C)(C)C)CCN1` (stereo unspecified) the value was 55 to 57 °C; for `CCCC(NC(=O)c1ccccc1)C(N)=S` (stereo unspecified), 202 to 204 °C; for `CCOC(=O)c1oc2ccc(OC)cc2c1C`, 103 to 105 °C. In the case of `COCCOc1ccc(Cl)c(C(=O)O)n1` it was 89 to 91 °C.

Compound `COc1cc(C=O)ccc1OCc1cccs1` yielded a melting point of 79 to 81 °C. The compound `Cc1nc(-c2cccnc2)nc(Cl)c1C` had a melting point of 72 to 74 °C.

In turn, `Nc1cccc(Oc2ncc(Br)cn2)c1` registered a melting point of 92 to 94 °C. Compound `O=Cc1ccccc1OCC(=O)N1CCCC1` showed a melting point of 112 to 114 °C.

In turn, `O=C(O)Cc1csc(-c2ccc(Cl)cc2)n1` returned a melting point of 255 to 257 °C. In the case of `N#Cc1cccnc1N1CCC(C(N)=O)CC1` it was 177 to 179 °C; in that of `O=c1[nH]nc2ccc(Cl)nn12`, 269 to 271 °C. In the case of `CC(C)c1ccc(N)c(C(=O)O)c1` it was 96 to 98 °C; in that of `O=C(O)c1ccc(N2CCCC2)c([N+](=O)[O-])c1`, 259 to 261 °C.

Take `CC(=O)Nc1ccc(N)c(Cl)c1`: the melting point lay within 113 to 115 °C.

Consider `CC(=O)N[C@@H](CC(=O)O)C(N)=O`, for which the melting point lay in the range of 159 to 161 °C. `CC1=NN(c2ccc(Br)cc2)C(=O)C1` registered a melting point of 164 to 166 °C. For `O=C(O)c1cccc(C(O)C(=O)O)c1` (stereo unspecified) the value was 189 to 191 °C; for `O=C(O)C=CC(=O)Nc1ccc(F)c(Cl)c1`, 189 to 191 °C; for `Cc1ccc(-c2csc(S)n2)cc1`, 192 to 194 °C. For the compound `CS(=O)(=O)CCCI`, the melting point was 59 to 61 °C. `N#Cc1c(Cl)cccc1Oc1cccc(C(=O)O)c1` registered a melting point of 239 to 241 °C. `Nc1ccc2nc(NC(=O)CN3CCOCC3)sc2c1` returned a melting point of 228 to 230 °C.

The compound `CCn1c(S)nnc1CCC(N)=O` showed a melting point of 208 to 210 °C. In the case of `O=C(O)C1CCN(C(=O)CCc2ccccc2)CC1` it was 107 to 109 °C; in that of `Cc1cc(/C=C(\C#N)C(=O)O)c(C)n1-c1ccccc1F`, 165 to 167 °C; in that of `FC(F)Oc1ccccc1-c1noc(CCl)n1`, less than 17 °C.

`O=c1[nH]c(CCl)nc2scc(-c3ccccc3Cl)c12` gave a melting point of 167 to 169 °C.

The compound `Nc1cccc2c1CN(c1nccs1)C2` came in with a melting point of 119 to 121 °C.

The compound `C=CCNc1nc(-c2ccccc2)cs1` returned a melting point of 74 to 76 °C. Compound `COC(=O)c1cc(C=O)c[nH]1` yielded a melting point of 124 to 126 °C.

`CSc1cc(C(=O)O)c(Cl)cc1Cl` came in with a melting point of 192 to 194 °C. For `Nc1ccc(OCc2cccc(F)c2)c(F)c1` the value was 43 to 45 °C; for `Nc1nnc(Cc2ccccc2F)o1`, 167 to 169 °C; for `Cn1nc(C(C)(C)C)c2cc(C(=O)O)cnc21`, 243 to 245 °C. In the case of `Cc1ccc(C(=O)O)cc1N1C(=O)C2CC=CCC2C1=O` (stereo unspecified) it was 221 to 223 °C.

Compound `C=CC(=O)Nc1cc(N)ccc1F` had a melting point of 135 to 137 °C. In turn, `NCc1nnc2n1CC(C(F)(F)F)CC2` (stereo unspecified) yielded a melting point of 55 to 57 °C.

In general, melting point refers to the temperature of the solid-liquid transition.
